From US20110071148A1, “COMPOUNDS AS THE ESTROGEN RELATED RECEPTORS MODULATORS AND THE USES THEREOF” (Guangzhou Institute of Biomedicine and Health, Chinese …, priority 2008, published 2011)

What was measured:
[1] = Oral glucose tolerance test in high-fat-diet mice; type: in vivo, C57BL/J6 mice; conditions: compared to rosiglitazone 10 mg/kg/day
Description: Seven weeks old male C57BL/J6 mice were either fed chow diet or a high-fat-diet with 60% calories from lard for 10 weeks. Compounds were administered to animals by gavage for two weeks at different doses. Six groups of animals (n=5) were administered with either vehicle, 10 mg/kg/day rosiglitazone, 0.5 mg/kg/day DK1, 5 mg/kg/day DK1, 0.5 mg/kg/day DK3, or 5 mg/kg/day DK3. Animals were then orally fed glucose. Blood samples were withdrawn at time 0, 15, 30, 60 and 120 min. Blood glucose level was measured by monitor (Accu-chek Advantage, Roche). The changes in blood glucose level were plotted against time and the areas under the curve were calculated for the different groups.

[2] = molecular target: T1, GAL-hERRα (human ERRalpha ligand binding domain) (Homo sapiens, UniProt P11474); experiment: GAL4-hERRα ligand binding domain luciferase reporter assay (UASgx4-TK-Luc with CMV-PGC-1α) in HeLa cells; type: cell-based; conditions: for expression of reporter genes modulated by ERRα: HeLa cell
T1 construct: expressed in transfected cells; host or cells: HeLa cells, transient lipofection
Description: To test the effect of the compounds on ERRα and other nuclear hormone receptors, HeLa cells were transiently transfected with expression vectors for the receptors along with appropriate reporter constructs according to methods known in the art. Suitable reporter gene constructs are well known to skilled workers in the fields of biochemistry and molecular biology. Other vectors known in the art can be used in the methods of the present invention.
HeLa cells for the activation assays were grown in Dulbecco's modified Eagle's medium supplemented with 10% resin charcoal-stripped fetal bovine serum at 37° C. in 5% CO2. One day prior to transfection, cells were plated to 50-80% confluence to using phenol red free DMEM-FBS. The cells were transiently transfected by lipofection but other methods of transfection of DNA into cells can be utilized without deviating from the spirit of the invention. Luciferase reporter construct UASgx4-TK-Luc and cytomegalovirus-driven expression vector p-GAL, GAL-hERRα, GAL-L-hERRβ or Gal-mERRγ were added with CMV-PGC-1α. The cells were treated for approximately 24 hours with phenol red free DMEM-FBS containing 0.01% DMSO (control) or 0.01% DMSO with increasing concentrations of DK compounds.

[3] = test system: PGC1α-promoter reporter gene driven by ERRα; experiment: PGC1α-promoter luciferase reporter assay driven by ERRα in HeLa cells; type: cell-based, human; conditions: about 24 hours, increasing concentrations, FIG. 4
Source text: HeLa were transiently transfected with the pGL3-promoter (Promega) derivative pGL3-PGC1α-promoter and expression vector for ERRα. The Renilla-Luciferase pRL-CMV Vector (Promega) was included as a control for transfection efficiency. The full length human ERRα was cloned into the expression vector pCMV. The pGL3-PGC1α-promoter was generated by cloning an insert derived from a PCR reaction using human genomic DNA as template and primers based on the 2.6 kbp upstream sequence of the PGC1α transcriptional start site.
HeLa cells for the activation assays were grown in Dulbecco's modified Eagle's medium supplemented with 10% fetal bovine serum at 37° C. in 5% CO2. One day prior to transfection, cells were plated to 50-80% confluence using DMEM-FBS. The cells were transiently transfected by lipofection but other methods of transfection of DNA into cells can be utilized without deviating from the spirit of the invention. Luciferase reporter construct pGL3-PGC1α-promoter and cytomegalovirus-driven expression vector pCMV or pCMV -hERRα were added. The cells were treated for approximately 24 hours with DMEM-FBS containing 0.01% DMSO (control) or 0.01% DMSO with increasing concentrations of DK compounds.

[4] = Liver weight and fatty liver in high-fat-diet mice; type: in vivo, C57BL/J6 mice; conditions: for liver weight: compared to rosiglitazone 10 mg/kg/d
Description: Seven weeks old male C57BL/J6 mice were either fed chow diet or a high-fat-diet with 60% calories from lard for 10 weeks. Compounds were administered to animals by gavage for two weeks at different doses. Six groups of animals (n=5) were administered with either vehicle, 10 mg/kg/day rosiglitazone, 0.5 mg/kg/day DK1, 5 mg/kg/day DK1, 0.5 mg/kg/day DK3, or 5 mg/kg/day DK3. Total body weight and livers wet weight from animals were measured. Liver samples to from animals were prepared by histological methods.

[5] = 0.5 mg/kg/day by gavage for two weeks
[6] = 5 mg/kg/day by gavage for two weeks

T1 sequence (P11474 193-421 limits assumed): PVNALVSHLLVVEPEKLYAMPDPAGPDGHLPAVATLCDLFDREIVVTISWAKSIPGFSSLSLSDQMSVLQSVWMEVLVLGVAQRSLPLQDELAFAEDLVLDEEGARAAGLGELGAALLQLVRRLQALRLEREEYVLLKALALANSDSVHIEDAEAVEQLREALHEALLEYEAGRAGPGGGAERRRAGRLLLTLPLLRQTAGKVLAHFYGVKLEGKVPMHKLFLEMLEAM
T1 sequence (P04386 1-147 partner limits assumed): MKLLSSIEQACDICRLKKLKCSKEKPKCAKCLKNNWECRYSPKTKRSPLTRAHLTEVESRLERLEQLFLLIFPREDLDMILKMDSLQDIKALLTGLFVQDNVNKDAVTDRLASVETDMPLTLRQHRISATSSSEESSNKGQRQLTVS
T1 sequence (O70343 whole entry partner, the tested form may be a part): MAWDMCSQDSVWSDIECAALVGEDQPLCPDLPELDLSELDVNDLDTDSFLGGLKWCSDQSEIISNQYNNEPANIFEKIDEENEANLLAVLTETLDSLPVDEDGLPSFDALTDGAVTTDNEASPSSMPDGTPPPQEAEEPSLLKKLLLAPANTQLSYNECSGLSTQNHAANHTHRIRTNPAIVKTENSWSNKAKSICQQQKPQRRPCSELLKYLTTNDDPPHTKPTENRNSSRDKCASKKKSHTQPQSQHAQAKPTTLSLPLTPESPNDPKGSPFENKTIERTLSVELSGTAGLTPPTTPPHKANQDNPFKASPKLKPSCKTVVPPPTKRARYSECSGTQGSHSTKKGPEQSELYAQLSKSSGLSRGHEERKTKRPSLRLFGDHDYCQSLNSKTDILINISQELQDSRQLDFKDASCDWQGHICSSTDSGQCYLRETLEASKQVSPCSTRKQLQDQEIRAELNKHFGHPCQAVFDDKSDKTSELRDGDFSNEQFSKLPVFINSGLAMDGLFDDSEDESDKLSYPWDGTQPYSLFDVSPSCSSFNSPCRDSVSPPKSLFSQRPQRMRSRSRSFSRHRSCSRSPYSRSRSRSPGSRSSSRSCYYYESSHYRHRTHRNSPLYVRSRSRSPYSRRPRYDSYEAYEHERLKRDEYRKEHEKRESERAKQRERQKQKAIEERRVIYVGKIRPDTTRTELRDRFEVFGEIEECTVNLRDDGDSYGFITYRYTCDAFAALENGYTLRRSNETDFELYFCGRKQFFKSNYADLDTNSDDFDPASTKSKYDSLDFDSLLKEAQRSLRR

Structure (SMILES)	area under the curve of the oral glucose tolerance test [1, 5]	area under the curve of the oral glucose tolerance test [1, 6]	expression of reporter genes modulated by ERRα [2]	reversal of the suppressive effect of ERRα specific inverse agonist XCT-790 ([2]; HeLa cells, FIG. 2)	activity of GAL-hERRα on reporter construct UASgx4-TK-Luc ([2]; HeLa cells, in the presence of CMV-PGC-1α, increasing concentrations)	PGC1α-promoter reporter gene driven by ERRα [3]	liver weight [4, 5]	liver weight [4, 6]	extent of fatty liver induced by high-fat-diet ([4]; gavage for two weeks, histology, FIGS. 7 and 8)
COc1ccc2c(=O)n(C)c(-c3ccccc3)nc2c1 [Compound 1, 7-methoxy-3-methyl-2-phenylquinazolin-4(3H)-one]	reduced	reduced	effectively enhance	dose-dependently reverses	dose-dependently enhances	dose-dependent enhancement	did not increase	did not increase	reduce the extent of fatty liver
COc1ccc2c(=O)n(C)c(-c3ccc(Br)cc3)nc2c1 [Compound 4, 2-(4-bromophenyl)-7-methoxy-3-methylquinazolin-4(3H)-one]	–	–	effectively enhance	–	–	–	–	–	–
COc1ccc2c(=O)n(C)c(-c3ccc(F)cc3)nc2c1 [Compound 3, 2-(4-fluorophenyl)-7-methoxy-3-methylquinazolin-4(3H)-one]	–	–	effectively enhance	–	–	–	–	–	–
